Measured values as given in US20170266184A1 (priority 2016, published 2017).
Like-named read-outs stand apart in the source and are kept apart here.

Experiments:
5-HT-1A receptor [1] = molecular target: T1, 5-HT-1A receptor (Rattus norvegicus, UniProt P19327); conditions: subcutaneous injection; cited from earlier work
T1 sequence (P19327 1-422): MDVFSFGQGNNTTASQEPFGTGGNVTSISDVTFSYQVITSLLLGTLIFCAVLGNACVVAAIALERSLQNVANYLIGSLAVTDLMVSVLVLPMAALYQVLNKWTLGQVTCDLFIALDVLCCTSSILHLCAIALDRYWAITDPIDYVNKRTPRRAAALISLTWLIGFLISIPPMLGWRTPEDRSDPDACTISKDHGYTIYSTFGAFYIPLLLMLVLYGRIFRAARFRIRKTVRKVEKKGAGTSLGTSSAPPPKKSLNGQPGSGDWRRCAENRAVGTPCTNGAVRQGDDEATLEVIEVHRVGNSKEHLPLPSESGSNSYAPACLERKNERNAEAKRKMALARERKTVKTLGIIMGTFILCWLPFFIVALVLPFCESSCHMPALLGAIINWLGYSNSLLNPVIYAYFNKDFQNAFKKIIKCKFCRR

5-HT-1A receptor [2] = molecular target: T1, 5-HT-1A receptor; parameters: host or cells: rat, whole animal (in vivo); conditions: rats; cited from earlier work
rats [3] = tested on: rats
Procedure: After post-conditioning the challenge dose of morphine (7.5 mg/kg) was given. The hot plate test was conducted 30 min after challenge dose to measure difference in heat-induced nociception in the six groups. The latency (either jumping or hind-paw licking) and number of licks were monitored for each animal. The temperature of hot plate was kept 52° C. and cutoff time was 30 sec.

rats [4] = assay: Conditioned place preference (CPP) test of drug-induced reinforcement; assay type: in vivo, rat
Procedure: A three compartment conditioned place preference (CPP) apparatus with an unbiased design was used to monitor drug-induced reinforcement. The apparatus was made up of transparent plastic Perspex. The compartments were separated by sliding guillotine doors.
The end (preference) compartments (26×26×26 cm each) provided distinct contexts, with one compartment having black horizontal stripes on side walls, the other compartment had vertical black stripes. […] The experiment was conducted in three distinct phases: pre-conditioning, conditioning and post-conditioning.
An animal introduced in the CPP apparatus from the middle compartment and guillotine doors were raised to open. The animal was allowed to explore the entire apparatus for 10 min. Time spent in each compartment was recorded.
The test was carried out on day 13, one day after the last conditioning session, in a drug free state. Each animal was tested only once. As in the pre-conditioning phase, the guillotine doors were removed and rat was given access to the entire apparatus for 10 min. Time spent in ‘Drug’ assigned compartment was monitored.

rats [5] = tested on: rats; remark: listed apart in the source
Procedure: This phase started one day after pre-conditioning phase, animals were randomly assigned to six groups, each containing six animals: (i) buspirone 0 mg/kg+saline, (ii) buspirone 0 mg/kg+morphine, (iii) buspirone 1 mg/kg+saline, (iv) buspirone 1 mg/kg+morphine, (v) buspirone 2 mg/kg+saline and (vi) buspirone 2 mg/kg+morphine injected animals. Over next 12 days (day 1 to day 12) animals went through conditioning (one session per day) in which they were confined to either the horizontal or vertical stripe compartment by raising the respective guillotine door. On day 1, 3, 5, 7, 9 and 11 animals of all groups were injected with saline (1 ml/kg) and placed immediately in the assigned ‘Non-Drug’ compartment for 30 min. After which the animals were kept in their home cages. On every other day, i.e. day 2, 4, 6, 8, 10, and 12 control and test animals were injected with saline, buspirone and/or morphine as assigned above. Immediately after injection the animals were placed in the ‘Drug’ compartment for 30 min. The animals picked from the drug compartment were placed back in their home cages.
Motor behavior was also monitored during conditioning phase. Animals confined to a compartment were moving across the compartment. Activity scores were counted as number of cage crossings for 10 min starting 5 min post injection.

rats [6] = conditions: buspirone and apomorphine co-administered to rats; cited from earlier work
monkeys = conditions: cited from earlier work
humans = conditions: cited from earlier work
rhesus monkeys = conditions: fluoxetine with morphine; cited from earlier work
rats [7] = conditions: fluoxetine with morphine; cited from earlier work
[8] = all three doses of morphine vs saline treated animals, FIG. 3

Question: With `CCCN(CCC)C1CCc2cccc(O)c2C1` (centres unmarked) [8-OH-DPAT, 8-hydroxy-N,N-dipropyl-2-aminotetralin] as the compound, how does the Analgesic effect (5-HT-1A receptor [1]) read?
Answer: The Analgesic effect was “produces an analgesic effect”.

Question: What about the Anti-nociceptive effects (5-HT-1A receptor [2]) of the same compound?
Answer: Its Anti-nociceptive effects is “has anti-nociceptive effects”.

Question: With `O=C1CC2(CCCC2)CC(=O)N1CCCCN1CCN(c2ncccn2)CC1` [buspirone] as the compound, how does the “Analgesic effects of morphine” value (rats [3]; buspirone co-injected animals) read?
Answer: Its value is “potentiated”.

Question: What about the “Morphine-induced increases in post-conditioning time spent in drug paired compartment” value (rats [4]; buspirone 1 mg or 2 mg/kg co-administered with morphine 7.5 mg/kg, FIG. 1A) of the same compound?
Answer: The value was “significantly attenuates”.

Question: And the “Reinforcing effects of morphine (calculated percentage reinforcement)” value (rats [4]; buspirone 1 mg or 2 mg/kg co-administered with morphine 7.5 mg/kg, FIG. 1B)?
Answer: Its value is “do not occur”.

Question: What about the “Reduction of addiction to morphine” value (rats [4]; buspirone co-injected animals) of the same compound?
Answer: The value was “more than 90%”.

Question: And the “Calculated percentage psychosis like effects of morphine” value (rats [5]; animals co-treated with buspirone)?
Answer: The value was “blocked”.

Question: What about the “Psychosis like effects of morphine” value (rats [5]; co-administration of 1 mg/kg buspirone, FIG. 2B) of the same compound?
Answer: The value was “blocked”.

Question: What about the “Psychosis like effects of morphine” value (rats [5]; co-administration of 2 mg/kg buspirone, FIG. 2B) of the same compound?
Answer: The value was “attenuated”.

Question: And the “Tolerance in motor depressant effects of morphine” value (rats [5]; co-treated with buspirone 1 mg/kg or 2 mg/kg, FIG. 2A)?
Answer: Its value is “not produced”.

Question: What about the Addiction to apomorphine (rats [6]) of the same compound?
Answer: Its Addiction to apomorphine is “not produced”.

Question: With `CN(C)CCCN1c2ccccc2CCc2ccc(Cl)cc21` [clomipramine] as the compound, how does the “Anti-nociceptive effects of opioids” value (monkeys) read?
Answer: Its value is “enhances”.

Question: With `CCNC(C)Cc1cccc(C(F)(F)F)c1` (centres unmarked) [fenfluramine] as the compound, how does the “Analgesic effects of morphine” value (humans) read?
Answer: Its value is “increase”.

Question: Which “Anti-nociceptive effects of morphine” value (rhesus monkeys) does the source give for `CNCCC(Oc1ccc(C(F)(F)F)cc1)c1ccccc1` (centres unmarked) [fluoxetine] here?
Answer: Its value is “potentiates”.

Question: And the “Analgesic effects of morphine” value (humans)?
Answer: The value was “increase”.

Question: What about the “Anti-nociceptive effects of morphine” value (rats [7]) of the same compound?
Answer: Its value is “potentiates”.

Question: Which results are given for `CN1CC[C@]23c4c5ccc(O)c4O[C@H]2[C@@H](O)C=C[C@H]3[C@H]1C5` [morphine]?
Answer: Increase in latency time in paw licking, comparison of doses (rats [3]; 7.5 mg/kg vs 5 mg/kg morphine, FIG. 3): greater at 7.5 mg/kg than 5 mg/kg; Latency time in paw licking (rats [3]; [8]): increase; Number of licks (rats [3]; [8]): reduced; Latency time to first lick (rats [3]; repeated morphine treated animals, 30 min after 7.5 mg/kg morphine challenge, FIG. 4): reduced; Number of licks (rats [3]; repeated morphine treated animals, after morphine challenge, FIG. 4): higher; Post-conditioning time spent in the drug paired compartment (rats [4]; morphine 7.5 mg/kg alone, repeated, FIG. 1A): much higher; Calculated percentage reinforcement (rats [4]; morphine 7.5 mg/kg alone, FIG. 1B): reinforcing; Motor activity (rats [5]; 1st and 2nd injection of morphine, FIG. 2A): decrease; Decreases in motor activity (tolerance in motor depressant effect) (rats [5]; 3rd to 6th administration of morphine, day 6, 8, 10 and 12, FIG. 2A): do not occur; Psychosis like effects (rats [5]; morphine alone, FIG. 2B): produced psychosis like effects
